The values below come from PubChem BioAssay (NCI).

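These data come from cells grown in 96-well plates and exposed to compound for 48 hours at five concentrations. At the TGI there is no net growth.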

Test systems include NCI-H23 lung; PC-3 prostate; NCI-H226 lung; DU-145 prostate; MDA-MB-435; SK-OV-3 ovarian; OVCAR-8 ovarian; SK-MEL-28 melanoma; NCI-H460 lung; ACHN renal; LOX IMVI melanoma; RXF 393 renal; SNB-19 CNS; UO-31 renal; TK-10 renal.
Assay in all cases: NCI tumour cell line growth inhibition, 48 h

On to `CC(=O)/C(=C\n1c(=S)[nH]c2ccc([N+](=O)[O-])cc21)C(=O)Nc1ccccc1C`, for which the TGI with NCI-H23 lung, with PC-3 prostate, with NCI-H226 lung, in the test with DU-145 prostate, with MDA-MB-435 and in the test on SK-OV-3 ovarian was more than 100 µM each time. Besides, the TGI in the test with OVCAR-8 ovarian, with SK-MEL-28 melanoma, in the test on NCI-H460 lung, in the test with ACHN renal, with LOX IMVI melanoma and in the test on RXF 393 renal was more than 100 µM throughout.

As for `CN(C)c1ccc(C=Nc2ccc(-c3nc4ccccc4o3)cc2)cc1`, the TGI in the test with SNB-19 CNS is more than 100 µM; with UO-31 renal it was more than 100 µM; with NCI-H23 lung, more than 100 µM; in the test on PC-3 prostate it was 97.9 µM; in the test with TK-10 renal, more than 100 µM; in the test on DU-145 prostate, more than 100 µM. Besides, the TGI was more than 100 µM with MDA-MB-435; more than 100 µM with SK-OV-3 ovarian; more than 100 µM in the test with OVCAR-8 ovarian; more than 100 µM in the test with SK-MEL-28 melanoma; 98.7 µM in the test with NCI-H460 lung; more than 100 µM in the test on ACHN renal. The TGI in the test on LOX IMVI melanoma was more than 100 µM.

For the molecule `CSc1nc2ccccc2c(=O)n1-c1cccc(C)c1`, the TGI with SNB-19 CNS, in the test on NCI-H23 lung, in the test with PC-3 prostate, in the test on TK-10 renal, in the test on NCI-H226 lung and with DU-145 prostate was more than 100 µM each time. Besides, the TGI with MDA-MB-435, with SK-OV-3 ovarian, in the test with OVCAR-8 ovarian, in the test with SK-MEL-28 melanoma, in the test with NCI-H460 lung and in the test with ACHN renal was more than 100 µM throughout. Besides, the TGI in the test with LOX IMVI melanoma and with RXF 393 renal was more than 100 µM throughout.

Regarding `COc1ccc(C(c2ccccc2)N2C(=O)CCC2C(=O)O)cc1OC` (stereo not drawn), the TGI with SNB-19 CNS, with UO-31 renal, in the test on NCI-H23 lung, in the test on PC-3 prostate, in the test with TK-10 renal and with NCI-H226 lung was more than 100 µM each time. Further, the TGI in the test on DU-145 prostate, in the test with MDA-MB-435, in the test on SK-OV-3 ovarian, with OVCAR-8 ovarian, in the test on SK-MEL-28 melanoma and in the test with NCI-H460 lung was more than 100 µM throughout. In addition, the TGI in the test with ACHN renal and in the test on LOX IMVI melanoma was more than 100 µM each time.

`CC(=O)NC1C(OCc2ccccc2)OC(CO)C(O)C1OC(C)C(=O)NC(C(=O)NC(CCC(=O)Nc1ccc2c(c1)CN1C(=O)c3ccccc3C1=N2)C(N)=O)C(C)C` (stereo not drawn): the TGI in the test on SNB-19 CNS, in the test on UO-31 renal, in the test with NCI-H23 lung, in the test with PC-3 prostate, with TK-10 renal and in the test on DU-145 prostate was more than 100 µM in each case. Also, the TGI in the test with MDA-MB-435, in the test on SK-OV-3 ovarian, in the test on OVCAR-8 ovarian, in the test with SK-MEL-28 melanoma, in the test on NCI-H460 lung and in the test with ACHN renal was more than 100 µM throughout. The TGI in the test with LOX IMVI melanoma and in the test with RXF 393 renal was more than 100 µM in each case.

As for `COc1ccc(N=C/C=C/C(=C/COC(C)=O)OC(C)=O)cc1`, the TGI in the test on SNB-19 CNS was more than 100 µM; in the test on NCI-H23 lung, 91.7 µM; with PC-3 prostate, more than 100 µM; in the test on TK-10 renal it was more than 100 µM; in the test on NCI-H226 lung, more than 100 µM; with DU-145 prostate, more than 100 µM. In addition, the TGI in the test on MDA-MB-435 is more than 100 µM; in the test with SK-OV-3 ovarian it was more than 100 µM; in the test with OVCAR-8 ovarian, more than 100 µM; in the test on SK-MEL-28 melanoma, 65.9 µM; with NCI-H460 lung, 98.6 µM; with ACHN renal it was 34.4 µM. The TGI with LOX IMVI melanoma is more than 100 µM; with RXF 393 renal it was 57.4 µM.

Turning to `CC(C)Cn1cnnc1NS(=O)(=O)c1cc(C(=O)NN)c(Cl)cc1S`, the TGI with SNB-19 CNS, with NCI-H23 lung, in the test on PC-3 prostate, in the test with TK-10 renal, with NCI-H226 lung and in the test on DU-145 prostate was more than 10 µM each time. Moreover, the TGI in the test on MDA-MB-435, in the test on SK-OV-3 ovarian, in the test with OVCAR-8 ovarian, with SK-MEL-28 melanoma, with NCI-H460 lung and in the test on ACHN renal was more than 10 µM in each case. Besides, the TGI in the test on LOX IMVI melanoma and in the test with RXF 393 renal was more than 10 µM in each case.

Turning to `COc1cc(-c2c(C(C)=O)c(-c3ccccc3)n(C3OC(COC(C)=O)C(OC(C)=O)C(OC(C)=O)C3OC(C)=O)c(=S)c2C#N)ccc1O` (stereo not drawn), the TGI with SNB-19 CNS, with UO-31 renal, with NCI-H23 lung, in the test on PC-3 prostate, in the test with DU-145 prostate and in the test with MDA-MB-435 was more than 100 µM throughout. Moreover, the TGI in the test on SK-MEL-28 melanoma, in the test with NCI-H460 lung, in the test on ACHN renal, with LOX IMVI melanoma and in the test on RXF 393 renal was more than 100 µM in each case.

For `COC(=O)[C@@H](COC(=O)/C=C/c1ccc(OC(C)=O)c(OC(C)=O)c1)NC(=O)/C=C/c1ccc(OC(C)=O)c(OC(C)=O)c1`, the TGI is more than 100 µM in the test with SNB-19 CNS; more than 100 µM in the test on NCI-H23 lung; more than 100 µM with PC-3 prostate; more than 100 µM in the test on NCI-H226 lung; 60.7 µM in the test with DU-145 prostate; more than 100 µM with MDA-MB-435. For the same molecule, the TGI with SK-OV-3 ovarian was more than 100 µM; in the test on OVCAR-8 ovarian it was more than 100 µM; in the test on SK-MEL-28 melanoma, more than 100 µM; in the test with NCI-H460 lung it was 47 µM; with ACHN renal, more than 100 µM; in the test with LOX IMVI melanoma it was 38.1 µM. Moreover, the TGI with RXF 393 renal is more than 100 µM.

Turning to `COc1ccc2[nH]c3c(c2c1)CCc1ccccc1-3`, the TGI in the test with SNB-19 CNS, in the test with UO-31 renal, in the test on NCI-H23 lung, in the test with PC-3 prostate, with TK-10 renal and in the test on NCI-H226 lung was more than 100 µM each time. The TGI in the test on DU-145 prostate, in the test on MDA-MB-435, with SK-OV-3 ovarian, with OVCAR-8 ovarian, in the test on SK-MEL-28 melanoma and in the test with NCI-H460 lung was more than 100 µM in each case. Also, the TGI in the test on ACHN renal and in the test with LOX IMVI melanoma was more than 100 µM throughout.
